Biological target: T1, microsomal h-COX2 (Homo sapiens, UniProt P35354)
T1 construct: made in house; host or cells: baculovirus infected SF9 cells (microsomal preparation)
T1 sequence (P35354 18-604): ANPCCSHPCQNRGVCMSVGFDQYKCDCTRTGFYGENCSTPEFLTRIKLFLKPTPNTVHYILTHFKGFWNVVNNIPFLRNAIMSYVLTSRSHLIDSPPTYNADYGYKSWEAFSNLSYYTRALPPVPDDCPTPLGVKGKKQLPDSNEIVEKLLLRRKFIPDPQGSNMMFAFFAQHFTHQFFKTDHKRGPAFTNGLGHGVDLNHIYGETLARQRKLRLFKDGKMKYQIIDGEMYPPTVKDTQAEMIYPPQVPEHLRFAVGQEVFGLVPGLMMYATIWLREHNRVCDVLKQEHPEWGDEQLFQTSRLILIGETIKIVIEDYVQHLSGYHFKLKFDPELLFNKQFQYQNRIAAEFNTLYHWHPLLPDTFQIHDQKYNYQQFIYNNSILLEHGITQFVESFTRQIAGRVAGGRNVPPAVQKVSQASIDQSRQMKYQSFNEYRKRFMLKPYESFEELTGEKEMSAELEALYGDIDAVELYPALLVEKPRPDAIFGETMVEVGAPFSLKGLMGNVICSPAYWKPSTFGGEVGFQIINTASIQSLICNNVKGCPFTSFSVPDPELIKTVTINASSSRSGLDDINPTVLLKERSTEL
Test: Microsomal assay: inhibition of microsomal h-COX2 (PGE2 by EIA)
Assay type: biochemical
Conditions: microsomal preparation from baculovirus infected SF9 cells; 1 hour preincubation; 0.1 μM arachidonic acid, 10 minutes; read-out: IC50 values for inhibition of COX-2
Protocol: Inhibitory activity against microsomal h-COX2 was assessed against a microsomal preparation from baculovirus infected SF9 cells. An aliquot of microsomal preparation was thawed slowly on ice and a 1/40,000 dilution prepared from it into the assay buffer (sterile water, degassed with argon containing 100 mM HEPES (pH 7.4), 10 mM EDTA (pH7.4), 1 mM phenol, 1 mM reduced glutathione, 20 mg/ml gelatin and 0.001 mM Hematin). Once diluted the enzyme solution was then sonicated for 5 seconds (Branson sonicator, setting 4, 1 cm tip) to ensure a homogeneous suspension. 155 μl enzyme solution was then added to each well of a 96-well microtitre plate containing either 5 μl test und (40× required test concentration) or 5 μl DMSO for controls. Plates were then mixed and incubated at room temperature for 1 hour. Following the incubation period, 40 μl of 0.5 μM arachidonic acid was added to each well to give a final concentration of 0.1 μM. Plates were then mixed and incubated for exactly 10 minutes (room temperature) prior to addition of 25 μl 1M HCl (hydrochloric acid) to each well to stop the reaction. 25 μl of 1M NaOH (sodium hydroxide) was then added to each well to neutralise the solution prior to determination of PGE2 levels by enzyme immunoassay (EIA).

Row | Structure (SMILES) | IC50
1 | CS(=O)(=O)c1ccc(-c2ccc3ccn(-c4ccc(F)cc4)c3n2)cc1 [Example 13] | ≤ 0.5 µM
2 | CS(=O)(=O)c1ccc(-c2ccc3ccn(Cc4ccccn4)c3n2)cc1 [Example 16] | ≤ 0.5 µM
3 | CS(=O)(=O)c1ccc(-c2ccc3ccn(Cc4cccnc4)c3n2)cc1 [Example 14] | ≤ 0.5 µM
4 | CC(C)Cc1cn(CC2CCCCC2)c2nc(-c3ccc(S(C)(=O)=O)cc3)ccc12 [Example 3, 1-(cyclohexanemethyl)-3-(2-methylprop-1-yl)-6-[4-(methylsulfonyl)phenyl]-7-azaindole] | ≤ 0.5 µM
5 | CS(=O)(=O)c1ccc(-c2ccc3c(C=O)cn(CC4CCCCC4)c3n2)cc1 [Example 4, 1-(cyclohexanemethyl)-6-[4-(methylsulfonyl)phenyl]-7-azaindole-3-carboxaldehyde] | ≤ 0.5 µM
6 | CS(=O)(=O)c1ccc(-c2ccc3ccn(Cc4ccccc4)c3n2)cc1 [Example 12] | ≤ 0.5 µM

More lines, now with the values ahead:

Row | IC50 | Structure (SMILES)
7 | ≤ 0.5 µM | CCC(CC)Cn1ccc2ccc(-c3ccc(S(C)(=O)=O)cc3)nc21 [Example 10]
8 | ≤ 0.5 µM | CS(=O)(=O)c1ccc(-c2ccc3ccn(CC4CCCCC4)c3n2)cc1 [Example 1, 1-(cyclohexanemethyl)-6-[4-(methylsulfonyl)phenyl]-7-azaindole]
9 | ≤ 0.5 µM | CS(=O)(=O)c1ccc(-c2ccc3ccn(Cc4ccncc4)c3n2)cc1 [Example 15]
10 | ≤ 0.5 µM | CS(=O)(=O)c1ccc(-c2ccc3ccn(Cc4ccc(Cl)cc4)c3n2)cc1 [Example 18]
11 | ≤ 0.5 µM | Cc1cn(CC2CCCCC2)c2nc(-c3ccc(S(C)(=O)=O)cc3)ccc12 [Example 6, 1-{cyclohexanemethyl)-3-methyl-6-[4-(methylsulfonyl)phenyl]-7-azaindole]
12 | ≤ 0.5 µM | CS(=O)(=O)c1ccc(-c2ccc3ccn(S(=O)(=O)c4ccccc4)c3n2)cc1 [Example 9]
13 | ≤ 0.5 µM | CS(=O)(=O)c1ccc(-c2ccc3ccn(-c4ccccc4)c3n2)cc1 [Example 2, 1-Phenyl-6-[4-(methylsulfonyl)phenyl]-7-azaindole]
